Laboratory results: patent publication US5707963A, “Methods of using growth inhibitory peptides” (Health Research, Incorporated, priority 1996, dated 1998)

B1: full-length transformed AFP molecule: full-length alpha-fetoprotein transformed by incubation with estradiol (E2) (protein, UniProt P02771 19-609, looked up)
Alpha-fetoprotein: RTLHRNEYGIASILDSYQCTAEISLADLATIFFAQFVQEATYKEVSKMVKDALTAIEKPTGDEQSSGCLENQLPAFLEELCHEKEILEKYGHSDCCSQSEEGRHNCFLAHKKPTPASIPLFQVPEPVTSCEAYEEDRETFMNKFIYEIARRHPFLYAPTILLWAARYDKIIPSCCKAENAVECFQTKAATVTKELRESSLLNQHACAVMKNFGTRTFQAITVTKLSQKFTKVNFTEIQKLVLDVAHVHEHCCRGDVLDCLQDGEKIMSYICSQQDTLSNKITECCKLTTLERGQCIIHAENDEKPEGLSPNLNRFLGDRDFNQFSSGEKNIFLASFVHEYSRRHPQLAVSVILRVAKGYQELLEKCFQTENPLECQDKGEEELQKYIQESQALAKRSCGLFQKLGEYYLQNAFLVAYTKKAPQLTSSELMAITRKMAATAATCCQLSEDKLLACGEGAADIIIGHLCIRHEMTPVNPGVGQCCTSSYANRRPCFSSLVVDETYVPPAFSDDKFIFHKDLCQAQGVALQTMKQEFLINLVKQKPQITEEQLEAVIADFSGLLEKCCQGQEQEVCFAEEGQKLISKTRAALGV
modifications: transformed by estradiol incubation

Legend:
[1] = system: estrogen-stimulated growth of mouse uterus; format: in vivo; conditions: immature mouse uterus, 10-100 ng per mouse, peak assay point of the dilution series
Description: An in vivo wet weight bioassay measuring inhibition of estrogen-stimulated growth of uteri was performed. The procedure of Mizejewski et al. was used for the wet weight assay (see Mizejewski, G. J. et al. (1983); Mizejewski, G. J. et al. (1986); Mizejewski, G. J. and A. S. Warner (1989); Mizejewski, G. J. et al., "Separation of the Estrogen-Activated Growth-Regulatory Forms of Alpha-Fetoprotein in Mouse Amniotic Fluid," Biol of Reprod 42:887-898 (1990); and Allen, S.H.G. et al. (1993)).
Briefly, the synthesized powdered peptide was reconstituted in saline (1 mg/ml) to form a stock solution of the GIP. The stock solution was appropriately diluted to provide dosages of 25 to 100 ng/mouse. 0.1 ml of the appropriately diluted GIP was injected intraperitoneally into 15-18 day old Nya:NYLAR female mice. Control mice were injected with saline or other peptides, including a peptide encoded by a portion of the amino acid sequence of albumin and a random 34 amino acid peptide. 1 hour after this first injection, an estrogen challenge of 0.5 micrograms of E2 in 0.1 ml saline was given to determine the change in uterine responsiveness to E2 resulting from exposure to the first injection. 23 hours after the second injection, uteri were dissected, trimmed free of connective tissue and immediately weighed. The uterine wet weights were normalized to mouse body weight (mg uterine weight/g of body weight) to compensate for differences in body weight among litters of the same age. Percent inhibition of estrogen-stimulated uterine growth was calculated as described by Mizejewski et al. (1983).
Two separate bioassays for inhibition of estrogen-stimulated growth were used. The first was an in vivo bioassay measuring an estrogen-induced increase in wet weight of the immature mouse uterus in a 24-hour determination. Dosages of peptide fragments ranged from 10 to 100 ng, and the %inhibition given in Table 6 represents the peak assay point of the dilution series.

[2] = transformed human AFP preparations
[3] = system: estrogen-stimulated growth of mouse uterus; conditions: full-length transformed AFP, see references cited; cited from earlier work

| Molecule | Percent Growth Inhibition [1] | time activity is retained [2] | inhibition of estrogen-stimulated growth [3] |
| --- | --- | --- | --- |
| SEQ ID NO:7: 3' fragment generated by cutting SEQ ID NO:1 with trypsin; 5 amino acids in length (LSEDK) | no detectable growth inhibition |  |  |
| SEQ ID NO:5: 5' fragment generated by cutting the 34 amino acid peptide SEQ ID NO:1 with trypsin (HEMTPVNPGV) | 38% |  |  |
| B1 |  | one week or less | 20-40% |
